Data: US20110118337A1, “Method of Using Compositions Comprising MIR-192 and/or MIR-215 for the Treatment of Cancer” (Merck Sharp & Dohme Corp., priority 2008, published 2011)

System: HCT116 DICER^ex5 cells
Assay: Gene expression profiling (Agilent 44K microarray) after transfection of miR-192/miR-215 duplex mimetics
Format: cell-based, human
Conditions: 10 nM, vs mock-transfected
Experimental: Synthetic duplex mimetics of miR-192 and miR-215 (sequences shown in TABLE 1) or a control target Luciferase siRNA (Luc), shown in TABLE 1, were transfected (10 nM final concentration) into HCT116 DICER^ex5, a human colorectal cancer cell line with hypomorphic DICER function (Cummins, J. M., et al., PNAS 103:3687-3692 (2006)). The transfections were carried out using Lipofectamine RNAiMax (Invitrogen) per the manufacturer's instructions. At 10 and 24 hours post-transfection, total RNA was extracted and gene expression profiling was carried out with the Agilent 44K microarray in comparison to RNA isolated from mock-transfected HCT116DICER^ex5 cells. Microarray analysis was carried out as described in Linsley, P. S., et al., Mol Cell Biol 27:2240-2252 (2007). Gene expression data analysis was done either with the Rosetta Resolver gene expression analysis software (Version 7.1 Rosetta Biosoftware).

Substance: miR-215: Synthetic duplex mimetic of miR-215, guide AUGACCUAUGAAUUGACAGAC (SEQ ID NO:4), passenger SEQ ID NO:10 (sense CUGUCAAUUCAUAGGUCUUAU; listed as RNA, chemistry not given here; listed as Homo sapiens)
- BCL2 transcript fold change (10 hr): −1.09 fold change
- BRCA1 transcript fold change (10 hr): −1.04 fold change
- CDC7 transcript fold change (10 hr): −1.54 fold change
- CDC14A transcript fold change (10 hr): −1.05 fold change
- CDC73 transcript fold change (10 hr): −1.04 fold change
- CRK transcript fold change (10 hr): −1.43 fold change
- CTCF transcript fold change (10 hr): −1.53 fold change
- CUL5 transcript fold change (10 hr): −1.25 fold change
- DBF4B transcript fold change (10 hr): −1.07 fold change
- DEK transcript fold change (10 hr): −1.19 fold change
- DLG5 transcript fold change (10 hr): −1.89 fold change
- DTL transcript fold change (10 hr): −1.19 fold change
- EMP1 transcript fold change (10 hr): 1.11 fold change
- ERCC3 transcript fold change (10 hr): −1.25 fold change
- EXTL2 transcript fold change (10 hr): −1.32 fold change
- FGF2 transcript fold change (10 hr): −1.67 fold change
- HOXA10 transcript fold change (10 hr): −1.74 fold change
- HRH1 transcript fold change (10 hr): −1.52 fold change
- KIF14 transcript fold change (10 hr): 1.01 fold change
- KIF23 transcript fold change (10 hr): 1.01 fold change
- LMNB2 transcript fold change (10 hr): −1.55 fold change
- MACF1 transcript fold change (10 hr): −1.17 fold change
- MAD2L transcript fold change (10 hr): −1.31 fold change
- MCM3 transcript fold change (10 hr): −1.56 fold change
- MCM6 transcript fold change (10 hr): −1.04 fold change
- MCM10 transcript fold change (10 hr): −1.97 fold change
- MIS12 transcript fold change (10 hr): −1.28 fold change
- MKI67 transcript fold change (10 hr): −1.04 fold change
- MPHOSPH1 transcript fold change (10 hr): −1.46 fold change
- MTSS1 transcript fold change (10 hr): −1.07 fold change
- NBN transcript fold change (10 hr): −1.39 fold change
- NCAPH transcript fold change (10 hr): −1.02 fold change
- NEK1 transcript fold change (10 hr): −1.16 fold change
- NFIB transcript fold change (10 hr): −1.38 fold change
- NFYA transcript fold change (10 hr): −1.25 fold change
- NIN transcript fold change (10 hr): −1.12 fold change
- PAFAH1B1 transcript fold change (10 hr): −1.31 fold change
- PAPD5 transcript fold change (10 hr): −1.31 fold change
- PFTK1 transcript fold change (10 hr): 1.05 fold change
- PIM1 transcript fold change (10 hr): −1.13 fold change
- PLAU transcript fold change (10 hr): −1.77 fold change
- PLS3 transcript fold change (10 hr): −1.56 fold change
- POLQ transcript fold change (10 hr): −1.1 fold change
- POLS transcript fold change (10 hr): −1.17 fold change
- PPP1CA transcript fold change (10 hr): −1.76 fold change
- PRPF38A transcript fold change (10 hr): −1.09 fold change
- RACGAP1 transcript fold change (10 hr): −1.31 fold change
- RAD1 transcript fold change (10 hr): −1.12 fold change
- RAD21 transcript fold change (10 hr): −1.32 fold change
- RAD51 transcript fold change (10 hr): 1.05 fold change
- RAP1GAP transcript fold change (10 hr): −1.21 fold change
- RB1 transcript fold change (10 hr): −1.25 fold change
- SEPT10 transcript fold change (10 hr): −1.6 fold change
- SERTAD2 transcript fold change (10 hr): −1.09 fold change
- SH3BP4 transcript fold change (10 hr): −1.38 fold change
- SMARCB1 transcript fold change (10 hr): −1.42 fold change
- TDG transcript fold change (10 hr): −1.54 fold change
- TDP1 transcript fold change (10 hr): −1.5 fold change
- TOP1 transcript fold change (10 hr): −1.64 fold change
- TUBGCP3 transcript fold change (10 hr): −1.41 fold change
- USP1 transcript fold change (10 hr): −1.16 fold change
- UVRAG transcript fold change (10 hr): −1.17 fold change
- BCL2 transcript fold change (24 hr): −1.59 fold change
- BRCA1 transcript fold change (24 hr): −1.43 fold change
- CDC7 transcript fold change (24 hr): −2.04 fold change
- CDC14A transcript fold change (24 hr): −1.2 fold change
- CDC73 transcript fold change (24 hr): −1.1 fold change
- CRK transcript fold change (24 hr): −1.52 fold change
- CTCF transcript fold change (24 hr): −1.66 fold change
- CUL5 transcript fold change (24 hr): −1.37 fold change
- DBF4B transcript fold change (24 hr): −1.33 fold change
- DEK transcript fold change (24 hr): −1.42 fold change
- DLG5 transcript fold change (24 hr): −2.03 fold change
- DTL transcript fold change (24 hr): −1.46 fold change
- EMP1 transcript fold change (24 hr): 1.04 fold change
- ERCC3 transcript fold change (24 hr): −1.36 fold change
- EXTL2 transcript fold change (24 hr): −1.59 fold change
- FGF2 transcript fold change (24 hr): −2.12 fold change
- HOXA10 transcript fold change (24 hr): −2.57 fold change
- HRH1 transcript fold change (24 hr): −1.63 fold change
- KIF14 transcript fold change (24 hr): −1.53 fold change
- KIF23 transcript fold change (24 hr): −1.36 fold change
- LMNB2 transcript fold change (24 hr): −1.92 fold change
- MACF1 transcript fold change (24 hr): −1.55 fold change
- MAD2L transcript fold change (24 hr): −1.84 fold change
- MCM3 transcript fold change (24 hr): −1.96 fold change
- MCM6 transcript fold change (24 hr): −1.4 fold change
- MCM10 transcript fold change (24 hr): −2.67 fold change
- MIS12 transcript fold change (24 hr): −1.77 fold change
- MKI67 transcript fold change (24 hr): −1.52 fold change
- MPHOSPH1 transcript fold change (24 hr): −1.94 fold change
- MTSS1 transcript fold change (24 hr): −1.29 fold change
- NBN transcript fold change (24 hr): −1.41 fold change
- NCAPH transcript fold change (24 hr): −1.32 fold change
- NEK1 transcript fold change (24 hr): −1.35 fold change
- NFIB transcript fold change (24 hr): −1.91 fold change
- NFYA transcript fold change (24 hr): −1.18 fold change
- NIN transcript fold change (24 hr): −1.42 fold change
- PAFAH1B1 transcript fold change (24 hr): −1.6 fold change
- PAPD5 transcript fold change (24 hr): −1.22 fold change
- PFTK1 transcript fold change (24 hr): −1.28 fold change
- PIM1 transcript fold change (24 hr): −1.65 fold change
- PLAU transcript fold change (24 hr): −1.91 fold change
- PLS3 transcript fold change (24 hr): −1.84 fold change
- POLQ transcript fold change (24 hr): −1.23 fold change
- POLS transcript fold change (24 hr): −1.38 fold change
- PPP1CA transcript fold change (24 hr): −2.42 fold change
- PRPF38A transcript fold change (24 hr): −1.17 fold change
- RACGAP1 transcript fold change (24 hr): −1.84 fold change
- RAD1 transcript fold change (24 hr): −1.38 fold change
- RAD21 transcript fold change (24 hr): −1.52 fold change
- RAD51 transcript fold change (24 hr): −1.35 fold change
- RAP1GAP transcript fold change (24 hr): −1.35 fold change
- RB1 transcript fold change (24 hr): −1.39 fold change
- SEPT10 transcript fold change (24 hr): −1.95 fold change
- SERTAD2 transcript fold change (24 hr): −1.1 fold change
- SH3BP4 transcript fold change (24 hr): −1.67 fold change
- SMARCB1 transcript fold change (24 hr): −1.42 fold change
- TDG transcript fold change (24 hr): −1.55 fold change
- TDP1 transcript fold change (24 hr): −1.8 fold change
- TOP1 transcript fold change (24 hr): −1.76 fold change
- TUBGCP3 transcript fold change (24 hr): −1.73 fold change
- USP1 transcript fold change (24 hr): −1.38 fold change
- UVRAG transcript fold change (24 hr): −1.43 fold change
